Source: patent US9771370B2, “Compounds for the inhibition of indoleamine-2,3-dioxygenase” (Merck Patent GmbH, priority 2014, dated 2017)

Target: Recombinant human IDO (Homo sapiens, UniProt P14902)
Test: Bridge-IT tryptophan fluorescence assay of human IDO-1 inhibition
Type: biochemical
Conditions: recombinant human IDO 7.5 nM, L-tryptophan
Method in brief: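 One variant ran L-Trp at 100 μM for 90 min at 37 °C. The other pre-incubated compound for 30 min at 25 °C, then ran 50 μM L-Trp for 60 min at 25 °C.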

Sequence of Recombinant human IDO (P14902 whole entry): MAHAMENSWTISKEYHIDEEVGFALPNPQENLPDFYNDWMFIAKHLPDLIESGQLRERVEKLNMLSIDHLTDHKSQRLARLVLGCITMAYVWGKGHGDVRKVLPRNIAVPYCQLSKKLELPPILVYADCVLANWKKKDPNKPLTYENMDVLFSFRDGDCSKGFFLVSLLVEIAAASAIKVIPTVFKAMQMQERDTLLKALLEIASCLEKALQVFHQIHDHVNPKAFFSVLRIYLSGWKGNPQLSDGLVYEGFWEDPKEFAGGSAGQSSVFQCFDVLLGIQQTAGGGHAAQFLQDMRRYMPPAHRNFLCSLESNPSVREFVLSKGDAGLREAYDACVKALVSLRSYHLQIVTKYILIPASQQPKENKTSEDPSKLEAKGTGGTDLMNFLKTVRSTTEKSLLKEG

Compound | IC50 [nM]
NC(=O)C1CCC(F)(CCC2c3c(Cl)cccc3-c3cncn32)CC1 (single isomer, unassigned) [Compound 99c, 4-[2-[6-chloro-5H-imidazo[4,3-a]isoindol-5-yl]ethyl]-4-fluorocyclohexane-1-carboxamide] | < 100
NC(=O)C1CCC(F)(CCC2c3c(Cl)cccc3-c3cncn32)CC1 (single isomer, unassigned) [Compound 99d, 4-[2-[6-chloro-5H-imidazo[4,3-a]isoindol-5-yl]ethyl]-4-fluorocyclohexane-1-carboxamide] | > 1000
OC(CC1c2nccc(F)c2-c2cncn21)C1CCCCC1 (single isomer, unassigned) [Compound 101a, 1-cyclohexyl-2-[12-fluoro-4,6,9-triazatricyclo[6.4.0.0^[2,6]]dodeca-1(8),2,4,9,11-pentaen-7-yl]ethan-1-ol] | > 1000
OC(CC1c2nccc(F)c2-c2cncn21)C1CCCCC1 (single isomer, unassigned) [Compound 101b, 1-cyclohexyl-2-[12-fluoro-4,6,9-triazatricyclo[6.4.0.0^[2,6]]dodeca-1(8),2,4,9,11-pentaen-7-yl]ethan-1-ol] | > 1000
OC(CC1c2nccc(F)c2-c2cncn21)C1CCCCC1 (single isomer, unassigned) [Compound 101c, 1-cyclohexyl-2-[12-fluoro-4,6,9-triazatricyclo[6.4.0.0^[2,6]]dodeca-1(8),2,4,9,11-pentaen-7-yl]ethan-1-ol] | > 1000
OC(CC1c2nccc(F)c2-c2cncn21)C1CCCCC1 (single isomer, unassigned) [Compound 101d, 1-cyclohexyl-2-[12-fluoro-4,6,9-triazatricyclo[6.4.0.0^[2,6]]dodeca-1(8),2,4,9,11-pentaen-7-yl]ethan-1-ol] | > 1000
Fc1ccnc2c1-c1cncn1C2CCC1(F)CCCCC1 (single isomer, unassigned) [Compound 102a, 12-fluoro-7-[2-(1-fluorocyclohexyl)ethyl]-4,6,9-triazatricyclo[6.4.0.0^[2,6]]dodeca-1(8),2,4,9,11-pentaene] | > 1000
Fc1ccnc2c1-c1cncn1C2CCC1(F)CCCCC1 (single isomer, unassigned) [Compound 102b, 12-fluoro-7-[2-(1-fluorocyclohexyl)ethyl]-4,6,9-triazatricyclo[6.4.0.0^[2,6]]dodeca-1(8),2,4,9,11-pentaene] | > 1000
OCC1CCC(F)(CCC2c3c(Cl)cccc3-c3cncn32)CC1 (single isomer, unassigned) [Compound 105a, [4-[2-[6-chloro-5H-imidazo[4,3-a]isoindol-5-yl]ethyl]-4-fluorocyclohexyl]methanol] | > 1000
OCC1CCC(F)(CCC2c3c(Cl)cccc3-c3cncn32)CC1 (single isomer, unassigned) [Compound 105c, [4-[2-[6-chloro-5H-imidazo[4,3-a]isoindol-5-yl]ethyl]-4-fluorocyclohexyl]methanol] | < 100
OC(CC1c2ncccc2-c2cncn21)C1(F)CCCCC1 (single isomer, unassigned) [Compound 109a, 1-(1-fluorocyclohexyl)-2-[4,6,9-triazatricyclo[6.4.0.0^[2,6]]dodeca-1(8),2,4,9,11-pentaen-7-yl]ethan-1-ol] | > 1000
OC(CC1c2ncccc2-c2cncn21)C1(F)CCCCC1 (single isomer, unassigned) [Compound 109c, 1-(1-fluorocyclohexyl)-2-[4,6,9-triazatricyclo[6.4.0.0^[2,6]]dodeca-1(8),2,4,9,11-pentaen-7-yl]ethan-1-ol] | 100 to 1000
NC(=O)CC1CCC(F)(CCC2c3ccccc3-c3cncn32)CC1 (single isomer, unassigned) [Compound 112a, 2-[4-fluoro-4-[2-[5H-imidazo[4,3-a]isoindol-5-yl]ethyl]cyclohexyl]acetamide] | > 1000
NC(=O)CC1CCC(F)(CCC2c3ccccc3-c3cncn32)CC1 (single isomer, unassigned) [Compound 112b, 2-[4-fluoro-4-[2-[5H-imidazo[4,3-a]isoindol-5-yl]ethyl]cyclohexyl]acetamide] | < 100
NC(=O)CC1CCC(F)(CCC2c3ccccc3-c3cncn32)CC1 (single isomer, unassigned) [Compound 112c, 2-[4-fluoro-4-[2-[5H-imidazo[4,3-a]isoindol-5-yl]ethyl]cyclohexyl]acetamide] | > 1000
NC(=O)CC1CCC(F)(CCC2c3ccccc3-c3cncn32)CC1 (single isomer, unassigned) [Compound 112d, 2-[4-fluoro-4-[2-[5H-imidazo[4,3-a]isoindol-5-yl]ethyl]cyclohexyl]acetamide] | < 100
NC(=O)CC1CCC(F)(CCC2c3c(Cl)cccc3-c3cncn32)CC1 (single isomer, unassigned) [Compound 113a, 2-[4-[2-[6-chloro-5H-imidazo[4,3-a]isoindol-5-yl]ethyl]-4-fluorocyclohexyl]acetamide] | < 100
NC(=O)CC1CCC(F)(CCC2c3c(Cl)cccc3-c3cncn32)CC1 (single isomer, unassigned) [Compound 113b, 2-[4-[2-[6-chloro-5H-imidazo[4,3-a]isoindol-5-yl]ethyl]-4-fluorocyclohexyl]acetamide] | > 1000
NC(=O)CC1CCC(F)(CCC2c3c(Cl)cccc3-c3cncn32)CC1 (single isomer, unassigned) [Compound 113c, 2-[4-[2-[6-chloro-5H-imidazo[4,3-a]isoindol-5-yl]ethyl]-4-fluorocyclohexyl]acetamide] | > 1000
NC(=O)CC1CCC(F)(CCC2c3c(Cl)cccc3-c3cncn32)CC1 (single isomer, unassigned) [Compound 113d, 2-[4-[2-[6-chloro-5H-imidazo[4,3-a]isoindol-5-yl]ethyl]-4-fluorocyclohexyl]acetamide] | < 100

Other lines, results leading:

IC50 [nM] | Compound
< 100 | CN(C)C(=O)C1CCC(F)(CCC2c3c(Cl)cccc3-c3cncn32)CC1 (single isomer, unassigned) [Compound 114a, 4-[2-[6-chloro-5H-imidazo[4,3-a]isoindol-5-yl]ethyl]-4-fluoro-N,N-dimethylcyclohexane-1-carboxamide]
< 100 | CN(C)C(=O)C1CCC(F)(CCC2c3c(Cl)cccc3-c3cncn32)CC1 (single isomer, unassigned) [Compound 114b, 4-[2-[6-chloro-5H-imidazo[4,3-a]isoindol-5-yl]ethyl]-4-fluoro-N,N-dimethylcyclohexane-1-carboxamide]
> 1000 | CN(C)C(=O)C1CCC(F)(CCC2c3c(Cl)cccc3-c3cncn32)CC1 (single isomer, unassigned) [Compound 114c, 4-[2-[6-chloro-5H-imidazo[4,3-a]isoindol-5-yl]ethyl]-4-fluoro-N,N-dimethylcyclohexane-1-carboxamide]
> 1000 | CN(C)C(=O)C1CCC(F)(CCC2c3c(Cl)cccc3-c3cncn32)CC1 (single isomer, unassigned) [Compound 114d, 4-[2-[6-chloro-5H-imidazo[4,3-a]isoindol-5-yl]ethyl]-4-fluoro-N,N-dimethylcyclohexane-1-carboxamide]
< 100 | O=C(C1CCC(F)(CCC2c3c(Cl)cccc3-c3cncn32)CC1)N1CCCCC1 (single isomer, unassigned) [Compound 115a]
< 100 | O=C(C1CCC(F)(CCC2c3c(Cl)cccc3-c3cncn32)CC1)N1CCCCC1 (single isomer, unassigned) [Compound 115b]
100 to 1000 | O=C(C1CCC(F)(CCC2c3c(Cl)cccc3-c3cncn32)CC1)N1CCCCC1 (single isomer, unassigned) [Compound 115c]
> 1000 | O=C(C1CCC(F)(CCC2c3c(Cl)cccc3-c3cncn32)CC1)N1CCCCC1 (single isomer, unassigned) [Compound 115d]
> 1000 | NC(=O)CC1CCC(F)(CCC2c3c(F)cccc3-c3cncn32)CC1 (single isomer, unassigned) [Compound 116a, 2-[4-Fluoro-4-[2-[6-fluoro-5H-imidazo[4,3-a]isoindol-5-yl]ethyl]cyclohexyl]acetamide]
< 100 | NC(=O)CC1CCC(F)(CCC2c3c(F)cccc3-c3cncn32)CC1 (single isomer, unassigned) [Compound 116b, 2-[4-Fluoro-4-[2-[6-fluoro-5H-imidazo[4,3-a]isoindol-5-yl]ethyl]cyclohexyl]acetamide]
> 1000 | NC(=O)CC1CCC(F)(CCC2c3c(F)cccc3-c3cncn32)CC1 (single isomer, unassigned) [Compound 116c, 2-[4-Fluoro-4-[2-[6-fluoro-5H-imidazo[4,3-a]isoindol-5-yl]ethyl]cyclohexyl]acetamide]
< 100 | NC(=O)CC1CCC(F)(CCC2c3c(F)cccc3-c3cncn32)CC1 (single isomer, unassigned) [Compound 116d, 2-[4-Fluoro-4-[2-[6-fluoro-5H-imidazo[4,3-a]isoindol-5-yl]ethyl]cyclohexyl]acetamide]
> 1000 | OC(CC1c2ncccc2-c2cncn21)C1CCC(C2(O)CC2)CC1 (single isomer, unassigned) [Compound 117a, 1-[4-[1-hydroxy-2-[4,6,9-triazatricyclo[6.4.0.0^[2,6]]dodeca-1(8),2,4,9,11-pentaen-7-yl]ethyl]cyclohexyl]cyclopropan-1-ol]
100 to 1000 | OC(CC1c2ncccc2-c2cncn21)C1CCC(C2(O)CC2)CC1 (single isomer, unassigned) [Compound 117b, 1-[4-[1-hydroxy-2-[4,6,9-triazatricyclo[6.4.0.0^[2,6]]dodeca-1(8),2,4,9,11-pentaen-7-yl]ethyl]cyclohexyl]cyclopropan-1-ol]
> 1000 | OC(CC1c2ncccc2-c2cncn21)C1CCC(C2(O)CC2)CC1 (single isomer, unassigned) [Compound 117c, 1-[4-[1-hydroxy-2-[4,6,9-triazatricyclo[6.4.0.0^[2,6]]dodeca-1(8),2,4,9,11-pentaen-7-yl]ethyl]cyclohexyl]cyclopropan-1-ol]
